From paper PMC10515640, “Structure-Based Optimization of Covalent, Small-Molecule Stabilizers of the 14-3-3σ/ERα Protein–Protein Interaction from Nonselective Fragments” (Journal of the American Chemical Society, 2023)

Key:
14-3-3σ/ERα [1] = target: T1, 14-3-3σ/ERα (Homo sapiens, UniProt P03372+P31947); test: Fluorescence anisotropy compound titration, FAM-labeled ERα peptide; format: binding; conditions: 10 nM ERα-FAM labeled peptide, 1 µM 14-3-3σ, overnight incubation (24 h); read-out: EC50 value ERα (FA compound titration)
T1 construct: The 14-3-3 σ isoform (full-length for mass spectrometry and fluorescence anisotropy assays, ΔC for crystallography); made in house; host or cells: E. coli Rosetta 2(DE3)pLysS, pPROEX HTb vector
Source text: (§1) Two orthogonal assays were developed for screening. For the primary assay, mass spectrometry (MS) was used to monitor the formation of the covalent bond between the compound and the native cysteine (Cys38 on 14-3-3σ) (Figure 1D). The assay was first performed in the absence of peptide to determine binding to 14-3-3σ only (apo screening, D1) and then in the presence of both 14-3-3σ and the peptide as an indication of how much the peptide stabilized compound binding (D2). […] As a secondary assay, fluorescence anisotropy (FA) was used. In this case, compounds were titrated to mixtures of 14-3-3σ and FAM-labeled peptides. […] Thus, the two assays are highly complementary; the MS assay reports on compound binding and the FA assay reports on peptide binding. […]
diluted in buffer (10 mM HEPES, pH 7.5, 150 mM NaCl, 0.1% Tween20, 1 mg/mL Bovine Serum Albumin (BSA; Sigma-Aldrich). Final DMSO in the assay was always 1%. Dilution series of 14-3-3 proteins or compounds were made in […]
Compound titrations were made by titrating the compound in a 2-fold dilution series (starting at 500 or 1000 µM) to a mix of fluorescein-labeled peptide (10 nM) and 14-3-3σ (concentration at approximately the EC20 to EC30 value of the protein-peptide complex; 1 µM for ERα and 5 µM for C-RAF). Using the ~EC25 value makes the assay sensitive for measuring an increase in PPI formation. Fluorescence anisotropy measurements were performed directly and after overnight incubation at room temperature. […]
Wells containing only FAM-peptide were used to set as G-factor at 35 mP. Data reported are at endpoint. EC50 and apparent Kd values were obtained from fitting the data with a four-parameter logistic model (4PL) in GraphPad Prism 7 for Windows. Data was obtained and averaged based on either three (compound titrations) or two (protein titrations) independent experiments.

14-3-3σ/ERα [2] = target: T1, 14-3-3σ/ERα; test: Mass spectrometry dose response, compound binding to 14-3-3σ in the presence of ERα phosphopeptide; conditions: 100 nM compound, 100 nM 14-3-3σ, ERα-peptide 2 µM
Source text: as §1
(§2) Mass spectrometry dose response assays were performed on a Waters Acquity UPLC/ Xevo G2-XS Q-Tof mass spectrometer. A Waters UPLC Protein BEH-C4 Column (300 Å, 1.7 μm, 2.1 mm x 50 mm) was used to desalt the samples prior to application on the mass spectrometer. For 19-point MS dose responses, 50 mM compound stocks in DMSO were serially diluted in 3-fold increment in a master plate, then 1000 nl of the compounds were transferred in the assay plates. Master mixes containing 100 nM full-length wild type 14-3-3σ in the absence or presence of […]
(§3) Assay buffer was TRIS (10 mM, pH 8.0) and final volume per well was 50 μl, with final top concentration of compounds dose response series at 1 mM. The reaction mixtures were incubated for 1h at rt before subjected to MS. Four measurements (1h, 8h, 16h, 24h) were performed for time-course experiments. The injection volume for each sample was 6 μl. 24 μl of sample were needed for the time-course experiments, so the total volume in the assay plate was adjusted to 50 μl, to account for the dead volume in the injections. Data collection and automated processing followed a custom workflow, as previously described.1 z Plots were created using GraphPad Prism with the log(agonist) vs. response (variable slope, four parameters) fitting model. […]

14-3-3σ/C-RAF = target: T2, 14-3-3σ/C-RAF (Homo sapiens, UniProt P31947); test: Mass spectrometry dose response, compound binding to 14-3-3σ in the presence of C-RAF phosphopeptide; conditions: 100 nM compound, 100 nM 14-3-3σ, C-RAF peptide 18 µM
T2 construct: The 14-3-3 σ isoform (full-length for mass spectrometry and fluorescence anisotropy assays, ΔC for crystallography); made in house; host or cells: E. coli Rosetta 2(DE3)pLysS, pPROEX HTb vector
T2 sequence (P31947 1-248): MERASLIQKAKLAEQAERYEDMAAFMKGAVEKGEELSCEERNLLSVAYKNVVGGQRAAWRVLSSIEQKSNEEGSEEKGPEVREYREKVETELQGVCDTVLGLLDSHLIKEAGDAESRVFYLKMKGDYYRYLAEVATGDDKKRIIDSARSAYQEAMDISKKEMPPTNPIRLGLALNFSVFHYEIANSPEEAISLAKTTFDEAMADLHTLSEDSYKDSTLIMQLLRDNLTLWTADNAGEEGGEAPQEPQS
Source text: as §1, §2, §3

14-3-3σ = target: T3, 14-3-3σ (Homo sapiens, UniProt P31947); test: Mass spectrometry dose response, compound binding to 14-3-3σ in the absence of peptide (apo); conditions: 100 nM compound, 100 nM 14-3-3σ
T3 construct: The 14-3-3 σ isoform (full-length for mass spectrometry and fluorescence anisotropy assays, ΔC for crystallography); made in house; host or cells: E. coli Rosetta 2(DE3)pLysS, pPROEX HTb vector
T3 sequence (P31947 1-248): T2 sequence (P31947 1-248)
Source text: as §1, §2, §3

| EC50 (14-3-3σ/ERα [1]) [µM] | Percentage (%) bound of compound to 14-3-3σ, ERα 1h (14-3-3σ/ERα [2]) [%] | Percentage (%) bound of compound to 14-3-3σ, ERα 8h (14-3-3σ/ERα [2]) [%] | Percentage (%) bound of compound to 14-3-3σ, ERα 16h (14-3-3σ/ERα [2]) [%] | Percentage (%) bound of compound to 14-3-3σ, ERα 24h (14-3-3σ/ERα [2]) [%] | Percentage (%) bound of compound to 14-3-3σ, CRAF 1h (14-3-3σ/C-RAF) [%] | Percentage (%) bound of compound to 14-3-3σ, CRAF 8h (14-3-3σ/C-RAF) [%] | Percentage (%) bound of compound to 14-3-3σ, CRAF 24h (14-3-3σ/C-RAF; 24h) [%] | Percentage (%) bound of compound to 14-3-3σ, CRAF 24h (14-3-3σ/C-RAF; head prints 24h) [%] | Percentage (%) bound of compound to 14-3-3σ, APO 1h (14-3-3σ) [%] | Percentage (%) bound of compound to 14-3-3σ, APO 8h (14-3-3σ) [%] | Percentage (%) bound of compound to 14-3-3σ, APO 16h (14-3-3σ) [%] | Percentage (%) bound of compound to 14-3-3σ, APO 24h (14-3-3σ) [%] | Compound |
| --- | --- | --- | --- | --- | --- | --- | --- | --- | --- | --- | --- | --- | --- |
| > 150 | 0 | 0 | 0 | 0 | 0 | 0 | 0 | 0 | 0 | 0 | 0 | 0 | O=C(CCl)NCC1CCN(C(=O)C2(Nc3ccccc3)CCCCC2)CC1 [compound 121] |
| 16 ± 1 | 23.1 | 44.7 | 76.1 | 88.8 | 0 | 0 | 0 | 0 | 4.7 | 7.4 | 7.8 | 8.0 | O=C(CCl)NCCCC1CCN(C(=O)C2(Nc3ccc(Cl)cc3)CCNCC2)CC1 [compound 153] |
| 92 ± 8 | 0 | 0 | 1.0 | 1.1 | 0 | 0 | 0 | 0 | 0 | 0 | 0 | 0 | O=C(CCl)NCCC1CCN(C(=O)C2(Nc3ccc(Cl)cc3)CCOCC2)CC1 [compound 148] |
| > 150 | 1.0 | 10.2 | 83.3 | 89.9 | 1.0 | 2.9 | 22.1 | 16.3 | 0 | 0 | 0.8 | 25.6 | Cl.NC1CCC(Nc2ccccc2)(C(=O)N2CCC(CNC(=O)CCl)CC2)CC1 (stereo not drawn) [compound 141] |
| 33 ± 1 | 0.8 | 4.7 | 11.0 | 18.8 | 4.7 | 8.0 | 32.4 | 11.6 | 0 | 0 | 1.0 | 1.0 | C=CS(=O)(=O)NCC1CCN(C(=O)C(C)(C)Oc2ccc(Cl)cc2)CC1 [compound 17] |
| > 150 | 0 | 0 | 0 | 0 | 0 | 0 | 0 | 0 | 0 | 1.5 | 4.0 | 4.0 | O=C(CCl)NCC1CCN(C(=O)C2(Nc3ccccc3)CCC2)CC1 [compound 98] |
